Results as given in patent US11542273B2, “Amide compound having bet proteolysis-inducing action and medicinal application thereof” (MITSUBISHI TANABE PHARMA CORPORATION, priority 2018, dated 2023).

Tests used:
[1] = tested on: human prostate cancer LNCaP cells; assay: Cytotoxic action on cancer cells (WST-8, 96 hr); format: cell-based; settings: Homo sapiens, LNCaP, 96 h, read-out: LNCaP cytotoxic activity: IC50
Method in brief: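 Viability was read by WST-8 after 96 hr of compound exposure, normalised to untreated wells, with cells pre-cultured overnight in 10% FBS/RPMI1640 at 37 °C and 5% CO2. IC50 comes from a straight line between the two survival points enclosing 50%.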

[2] = target: BRD4 protein (Homo sapiens (Human), UniProt O60885); assay: BRD4 protein degradation inducing action in cancer cells (immunofluorescence, Operetta); format: cell-based; settings: LNCaP cells, 6 hr treatment, fluorescence intensity
Method in brief: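 DC50 = compound concentration reducing BRD4 immunofluorescence to 50% of untreated cells, interpolated between the two flanking concentrations. Treatment: LNCaP cells, 6 hr, 10% FBS/RPMI1640, 37° C. Cells were then fixed, permeabilized, stained with anti-BRD4 and Alexa Fluor 488 or 546 secondaries, and imaged.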

| Structure (SMILES) | IC50 [1] [nM] | DC50 [2] [nM] |
| --- | --- | --- |
| COC(=O)C[C@@H]1N=C(c2ccc(-c3ccc(C(=O)N[C@H](C(=O)N4C[C@H](O)C[C@H]4C(=O)NCc4ccc(-c5ocnc5C)cc4)C(C)(C)C)cc3)cc2)c2c(sc(C)c2C)-n2c(C)nnc21 [Example 218, methyl {(6S)-4-[4′-({(2S)-1-[(2S,4R)-4-hydroxy-2-({[4-(4-methyl-1,3-oxazol-5-yl)phenyl]methyl}carbamoyl)pyrrolidin-1-yl]-3,3-dimethyl-1-oxobutan-2-yl}carbamoyl) [1,1′-biphenyl]-4-yl]-2,3,9-trimethyl-6H-thieno [3,2-f][1,2,4]triazolo [4,3-a] [1,4]diazepin-6-yl}acetate] | 0.37 | 0.41 |
| CCOC(=O)c1ncsc1-c1ccc(CNC(=O)[C@@H]2C[C@@H](O)CN2C(=O)[C@@H](NC(=O)c2ccc(-c3ccc(C4=N[C@@H](CC(=O)OC)c5nnc(C)n5-c5sc(C)c(C)c54)cc3)cc2)C(C)(C)C)cc1 [Example 219, ethyl 5-{4-[({(2S,4R)-4-hydroxy-1-[(2S)-2-({4′-[(6S)-6-(2-methoxy-2-oxoethyl)-2,3,9-trimethyl-6H-thieno[3,2-f] [1,2,4]triazolo[4,3-a][1,4]diazepin-4-yl][1,1′-biphenyl]-4-carbonyl}amino)-3,3-dimethylbutanoyl]pyrrolidine-2-carbonyl}amino)methyl]phenyl}-1,3-thiazole-4-carboxylate] | 0.52 | 0.52 |
| COC(=O)C[C@@H]1N=C(c2ccc(-c3ccc(C(=O)N[C@H](C(=O)N4C[C@H](O)C[C@H]4C(=O)NCc4ccc(-c5scnc5CO)cc4)C(C)(C)C)cc3)cc2)c2c(sc(C)c2C)-n2c(C)nnc21 [Example 220, methyl [(6S)-4-(4′-{[(2S)-1-{(2S,4R)-4-hydroxy-2-[({4-[4-(hydroxymethyl)-1,3-thiazol-5-yl]phenyl}methyl)carbamoyl]pyrrolidin-1-yl}-3,3-dimethyl-1-oxobutan-2-yl]carbamoyl}[1,1′-biphenyl]-4-yl)-2,3,9-trimethyl-6H-thieno[3,2-f][1,2,4]triazolo[4,3-a][1,4]diazepin-6-yl]acetate] | 0.92 | 0.92 |
| COC(=O)C[C@@H]1N=C(c2ccc(N3CC[C@H](C(=O)NCCOc4ccc5oc(C(=O)N[C@H](C(=O)N6C[C@H](O)C[C@H]6C(=O)N[C@@H](C)c6ccc(-c7scnc7C)cc6)C(C)(C)C)cc5c4)C3)cc2)c2c(sc(C)c2C)-n2c(C)nnc21 [Example Compound 68, methyl [(6S)-4-(4-{(3S)-3-[(2-{[2-({(2S)-1-[(2S,4R)-4-hydroxy-2-({(1S)-1-[4-(4-methyl-1,3-thiazol-5-yl)phenyl]ethyl}carbamoyl)pyrrolidin-1-yl]-3,3-dimethyl-1-oxobutan-2-yl}carbamoyl)-1-benzofuran-5-yl]oxy}ethyl)carbamoyl]pyrrolidin-1-yl}phenyl)-2,3,9-trimethyl-6H-thieno[3,2-f][1,2,4]triazolo[4,3-a][1,4]diazepin-6-yl]acetate] | 0.52 | 0.46 |
| COC(=O)C[C@@H]1N=C(c2ccc(N3CC[C@@H](OCC(=O)N[C@H](C(=O)N4C[C@H](O)C[C@H]4C(=O)N[C@@H](C)c4ccc(-c5scnc5C)cc4)C(C)(C)C)C3)cc2)c2c(sc(C)c2C)-n2c(C)nnc21 [Example Compound 69, methyl [(6S)-4-(4-{(3R)-3-[2-({(2S)-1-[(2S,4R)-4-hydroxy-2-({(1S)-1-[4-(4-methyl-1,3-thiazol-5-yl)phenyl]ethyl}carbamoyl)pyrrolidin-1-yl]-3,3-dimethyl-1-oxobutan-2-yl}amino)-2-oxoethoxy]pyrrolidin-1-yl}phenyl)-2,3,9-trimethyl-6H-thieno[3,2-f][1,2,4]triazolo[4,3-a][1,4]diazepin-6-yl]acetate] | 0.33 | 0.15 |
